Test results published in the CheMixHub viscosity set.
Several values for one entry are separate records, joined by “and”; a condition that tells them apart may be missing. Identical values can stand only once. ± gives the uncertainty stated by the source.

What was measured:
[1] = xn = mol fraction of the nth substance listed

FC(F)(Cl)C(F)(F)Cl
101 kPa
Settings | viscosity [mPa·s]
293.35 K | 0.3524 ± 0.0096
313.05 K | 0.2877 ± 0.0078

CCCC(C)CO (stereo unspecified)
Settings | viscosity
298.15 K, 101.33 kPa | 5.304 ± 0.049 mPa·s and 5.304 ± 0.043 mPa·s

CCCCCCCC[P+](CC)(CC)CC.Cc1nc([N+](=O)[O-])c[n-]1
100 kPa
Settings | viscosity [mPa·s]
293.15 K | 920 ± 57
298.15 K | 623 ± 33
303.15 K | 435 ± 20
308.15 K | 313 ± 12
313.15 K | 231 ± 8
318.15 K | 174 ± 5
323.15 K | 135 ± 3

CC1(C)OC1C#N (stereo unspecified)
101 kPa
Settings | viscosity [mPa·s]
293.15 K | 1.337 ± 0.035
298.15 K | 1.223 ± 0.032
303.15 K | 1.1 ± 0.029
313.15 K | 0.938 ± 0.025
323.15 K | 0.79 ± 0.021

Clc1ccc(Cl)c(Cl)c1
viscosity [mPa·s]
Settings | 303.15 K | 313.15 K | 318.15 K
100 kPa | – | 1.472 ± 0.012 | 1.329 ± 0.012
101 kPa | 1.785 ± 0.011 | 1.472 ± 0.031 | 1.329 ± 0.028

CCOC(=O)CC(=O)OCC
101 kPa
Settings | viscosity [mPa·s]
303.15 K | 1.728 ± 0.037
308.15 K | 1.57 ± 0.034
313.15 K | 1.456 ± 0.031

CCN(CC)c1ccccc1
viscosity
Settings | 298 K | 298.15 K | 303.15 K | 308 K | 308.15 K | 313 K | 313.15 K | 318.15 K | 323.15 K
101 kPa | 1.919 ± 0.049 mPa·s | 1.93 ± 0.12 mPa·s and 1.77 ± 0.05 mPa·s and 1.93 ± 0.051 mPa·s | 1.72 ± 0.04 mPa·s and 1.525 ± 0.04 mPa·s | 1.534 ± 0.04 mPa·s | 1.55 ± 0.03 mPa·s | – | 1.35 ± 0.04 mPa·s | 1.274 ± 0.034 mPa·s | 1.15 ± 0.08 mPa·s and 1.07 ± 0.03 mPa·s
101.3 kPa | 1.933 ± 0.051 mPa·s | – | – | 1.547 ± 0.041 mPa·s | – | 1.41 ± 0.038 mPa·s | – | – | –

CCCCC(CC)COC(C)=O (stereo unspecified)
101.33 kPa
Settings | viscosity [mPa·s]
293.15 K | 1.471 ± 0.2
303.15 K | 1.234 ± 0.18
313.15 K | 1.051 ± 0.16
323.15 K | 0.906 ± 0.15

CCCCCCCCCCCC(=O)OCC
viscosity
Settings | 293.15 K | 303.15 K | 308.15 K | 313.15 K | 323.15 K
100 kPa | 3.374 ± 0.074 mPa·s | – | 2.43 ± 0.053 mPa·s | 2.203 ± 0.048 mPa·s | 1.827 ± 0.04 mPa·s
101.33 kPa | 3.374 ± 0.14 mPa·s | 2.695 ± 0.031 mPa·s | 2.43 ± 0.1 mPa·s | 2.203 ± 0.09 mPa·s and 2.045 ± 0.024 mPa·s | 1.827 ± 0.075 mPa·s

ClCCCCl + CC(C)CO
viscosity [mPa·s], [1], 101 kPa
Settings | x1 = 0.0989 | x1 = 0.2041 | x1 = 0.3021 | x1 = 0.3988 | x1 = 0.5019 | x1 = 0.602 | x1 = 0.704 | x1 = 0.8027 | x1 = 0.8982
298.15 K | 2.523 ± 0.021 | 1.948 ± 0.016 | 1.604 ± 0.013 | 1.373 ± 0.011 | 1.194 ± 0.0095 | 1.078 ± 0.0086 | 1.001 ± 0.008 | 0.9476 ± 0.0078 | 0.9412 ± 0.0078
313.15 K | 1.637 ± 0.016 | 1.327 ± 0.012 | 1.127 ± 0.0099 | 1.001 ± 0.0086 | 0.8964 ± 0.0076 | 0.8306 ± 0.007 | 0.789 ± 0.0067 | 0.7599 ± 0.0064 | 0.7565 ± 0.0065

CCCCCCCCCCBr + ClC(Cl)(Cl)Cl
[1], 101 kPa
Settings | viscosity [mPa·s]
297.75 K, x1 = 0.0484 | 0.9823 ± 0.021
297.75 K, x1 = 0.0969 | 1.057 ± 0.023
297.75 K, x1 = 0.1945 | 1.208 ± 0.026
297.75 K, x1 = 0.3918 | 1.52 ± 0.033
297.75 K, x1 = 0.5923 | 1.858 ± 0.04
297.75 K, x1 = 0.7944 | 2.106 ± 0.045
303.95 K, x1 = 0.0456 | 0.8918 ± 0.019
303.95 K, x1 = 0.0914 | 0.9574 ± 0.021
303.95 K, x1 = 0.1852 | 1.105 ± 0.024
303.95 K, x1 = 0.2667 | 1.2 ± 0.026
303.95 K, x1 = 0.5802 | 1.618 ± 0.035
303.95 K, x1 = 0.7825 | 1.864 ± 0.04
313.55 K, x1 = 0.0457 | 0.7792 ± 0.017
313.55 K, x1 = 0.092 | 0.8323 ± 0.018
313.55 K, x1 = 0.1856 | 0.948 ± 0.021
313.55 K, x1 = 0.378 | 1.171 ± 0.025
313.55 K, x1 = 0.5776 | 1.377 ± 0.03
313.55 K, x1 = 0.7832 | 1.562 ± 0.034

Cc1ccc(C(C)C)c(O)c1 + CCCCCCCCCCCC(=O)O
[1], 100 kPa, x2 = 0.45
Settings | viscosity [mPa·s]
303.15 K | 12.43 ± 0.12
308.15 K | 10.12 ± 0.1
313.15 K | 8.37 ± 0.08
318.15 K | 7.01 ± 0.07
323.15 K | 5.95 ± 0.06

Clc1ccc(Cl)c(Cl)c1 + CCNc1ccccc1
viscosity [mPa·s], [1], 101 kPa
Settings | 303.15 K | 308.15 K
x2 = 0.0875 | 1.784 ± 0.011 | 1.618 ± 0.01
x2 = 0.1559 | 1.783 ± 0.011 | 1.615 ± 0.01
x2 = 0.2286 | 1.782 ± 0.011 | 1.612 ± 0.01
x2 = 0.2938 | 1.781 ± 0.011 | 1.609 ± 0.01
x2 = 0.3656 | 1.779 ± 0.011 | 1.607 ± 0.01
x2 = 0.4225 | 1.777 ± 0.011 | 1.604 ± 0.01
x2 = 0.4952 | 1.775 ± 0.011 | 1.6 ± 0.01
x2 = 0.5659 | 1.772 ± 0.011 | 1.595 ± 0.01
x2 = 0.6359 | 1.768 ± 0.011 | 1.589 ± 0.01
x2 = 0.7025 | 1.763 ± 0.011 | 1.584 ± 0.01
x2 = 0.7812 | 1.758 ± 0.011 | 1.577 ± 0.01
x2 = 0.8525 | 1.752 ± 0.011 | 1.571 ± 0.01
x2 = 0.9199 | 1.748 ± 0.011 | 1.565 ± 0.01

CCCCCCCCCCBr
101 kPa
Settings | viscosity [mPa·s]
297.75 K | 2.35 ± 0.051
303.95 K | 2.08 ± 0.045
313.55 K | 1.75 ± 0.038

CCN(CC)c1ccccc1 + O=S1(=O)CCCC1
viscosity [mPa·s], [1], 101 kPa
Settings | x1 = 0.0999 | x1 = 0.2008 | x1 = 0.2993 | x1 = 0.4001 | x1 = 0.5001 | x1 = 0.6027 | x1 = 0.7023 | x1 = 0.7999 | x1 = 0.8991
303.15 K | 8.19 ± 0.17 | 6.62 ± 0.14 | 5.41 ± 0.11 | 4.44 ± 0.09 | 3.7 ± 0.08 | 3.09 ± 0.07 | 2.63 ± 0.06 | 2.26 ± 0.05 | 1.96 ± 0.04
308.15 K | 7.26 ± 0.15 | 5.88 ± 0.12 | 4.81 ± 0.1 | 3.96 ± 0.08 | 3.3 ± 0.07 | 2.77 ± 0.06 | 2.36 ± 0.05 | 2.04 ± 0.04 | 1.77 ± 0.04
313.15 K | 6.45 ± 0.14 | 5.25 ± 0.11 | 4.31 ± 0.09 | 3.54 ± 0.08 | 2.96 ± 0.06 | 2.49 ± 0.05 | 2.13 ± 0.05 | 1.84 ± 0.04 | 1.6 ± 0.03

CCCCCCCCCCN
Settings | viscosity [mPa·s]
303.15 K, 101 kPa | 1.766 ± 0.019

Cl.N=C(N)N + O
viscosity [mPa·s], [1], 101.3 kPa
Settings | x1 = 0.0018 | x1 = 0.0045 | x1 = 0.0089 | x1 = 0.013 | x1 = 0.0177
298.15 K | 0.896 ± 0.025 | 0.901 ± 0.025 | 0.908 ± 0.025 | 0.915 ± 0.025 | 0.923 ± 0.025
308.15 K | 0.722 ± 0.024 | 0.727 ± 0.024 | 0.735 ± 0.024 | 0.742 ± 0.024 | 0.748 ± 0.024
318.15 K | 0.6 ± 0.024 | 0.604 ± 0.024 | 0.613 ± 0.024 | 0.621 ± 0.024 | 0.626 ± 0.024

ClCCCCl
Settings | viscosity [mPa·s]
298.15 K, 101 kPa | 0.9443 ± 0.008

CCCN(CCC)CCC + c1ccccc1
viscosity [mPa·s], [1], 101 kPa
Settings | x1 = 0.01039 | x1 = 0.02061 | x1 = 0.03067 | x1 = 0.04025 | x1 = 0.04975 | x1 = 0.05958 | x1 = 0.06933 | x1 = 0.07883 | x1 = 0.08893
303.15 K | 0.5599 ± 0.0043 | 0.5574 ± 0.0043 | 0.5552 ± 0.0043 | 0.5532 ± 0.0043 | 0.5515 ± 0.0043 | 0.5487 ± 0.0043 | 0.5467 ± 0.0042 | 0.5453 ± 0.0043 | 0.5429 ± 0.0042
313.15 K | 0.4902 ± 0.0039 | 0.4877 ± 0.0039 | 0.4859 ± 0.0039 | 0.4836 ± 0.0039 | 0.4818 ± 0.0039 | 0.4793 ± 0.0039 | 0.4772 ± 0.0039 | 0.476 ± 0.0039 | 0.4738 ± 0.0039

Clc1ccc(Cl)c(Cl)c1 + Nc1ccccc1Cl
viscosity [mPa·s], [1], 101 kPa
Settings | x2 = 0.1164 | x2 = 0.2287 | x2 = 0.337 | x2 = 0.4415 | x2 = 0.5425 | x2 = 0.6402 | x2 = 0.7346 | x2 = 0.8259 | x2 = 0.9143
303.15 K | 1.936 ± 0.04 | 2.118 ± 0.044 | 2.307 ± 0.048 | 2.504 ± 0.052 | 2.708 ± 0.056 | 2.919 ± 0.061 | 3.137 ± 0.065 | 3.361 ± 0.07 | 3.59 ± 0.075
308.15 K | 1.773 ± 0.037 | 1.935 ± 0.04 | 2.103 ± 0.044 | 2.277 ± 0.047 | 2.456 ± 0.051 | 2.639 ± 0.055 | 2.827 ± 0.059 | 3.018 ± 0.063 | 3.214 ± 0.067
313.15 K | 1.614 ± 0.034 | 1.761 ± 0.037 | 1.912 ± 0.04 | 2.067 ± 0.043 | 2.226 ± 0.046 | 2.388 ± 0.05 | 2.553 ± 0.053 | 2.72 ± 0.057 | 2.889 ± 0.06
318.15 K | 1.46 ± 0.03 | 1.595 ± 0.033 | 1.734 ± 0.036 | 1.875 ± 0.039 | 2.019 ± 0.042 | 2.165 ± 0.045 | 2.313 ± 0.048 | 2.462 ± 0.051 | 2.612 ± 0.054

CCCC[NH3+].O=[N+]([O-])[O-]
Settings | viscosity [mPa·s]
298 K, 101 kPa | 108.5 ± 4.4
